For experiment [1], the system named is PC3 cells. As to the kind of experiment: PC3 growth inhibition (Cell-titer glo, 72 hours). The class given is cell-based. To be noted: Homo sapiens, PC-3; compound concentration 1.667 μM; PC3 cells, 72 hours, Cell-titer glo; read-out: Percent Inhibition (PC3 growth inhibition). The essentials: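 PC3 cells in RPMI1640 seeded overnight at 37 °C, 5% CO2, then exposed to compound diluted in AIM serum-free medium for 72 h. Viability by CellTiter-Glo luminescence vs DMSO controls; single-concentration % remaining viability (1 μM or 1.667 μM), or GI50/LD50 from curves.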

For experiment [2], the target named is hNAMPT protein (Homo sapiens (Human), UniProt P43490). As to the kind of experiment: NAMPT enzyme assay (TR-FRET/HTRF, BodiPY ligand, anti 6His-Tb). The class given is binding. To be noted: for IC50: NAMPT IC50 range class, read-out: IC50; for inhibition at 1 µM: compound concentration 1 μM, read-out: Percent Inhibition. The essentials:
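TR-FRET binding assay in which His-tagged human NAMPT with anti-6His-Tb is displaced by compound from a BodiPY ligand, incubated 1 h at rt in the dark. Excitation was at 320 nm, with the 520/486 nm emission ratio read. IC50 was fitted from inhibition relative to DMSO controls.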
A general note: Time-resolved FRET reads energy transfer from a long-lived donor to a nearby acceptor.

As a reminder, the inhibition is the change of the read-out against control, counted positive when it falls. The IC50 is the concentration that inhibits the measured activity by half.

hNAMPT protein, sequence (P43490 whole entry): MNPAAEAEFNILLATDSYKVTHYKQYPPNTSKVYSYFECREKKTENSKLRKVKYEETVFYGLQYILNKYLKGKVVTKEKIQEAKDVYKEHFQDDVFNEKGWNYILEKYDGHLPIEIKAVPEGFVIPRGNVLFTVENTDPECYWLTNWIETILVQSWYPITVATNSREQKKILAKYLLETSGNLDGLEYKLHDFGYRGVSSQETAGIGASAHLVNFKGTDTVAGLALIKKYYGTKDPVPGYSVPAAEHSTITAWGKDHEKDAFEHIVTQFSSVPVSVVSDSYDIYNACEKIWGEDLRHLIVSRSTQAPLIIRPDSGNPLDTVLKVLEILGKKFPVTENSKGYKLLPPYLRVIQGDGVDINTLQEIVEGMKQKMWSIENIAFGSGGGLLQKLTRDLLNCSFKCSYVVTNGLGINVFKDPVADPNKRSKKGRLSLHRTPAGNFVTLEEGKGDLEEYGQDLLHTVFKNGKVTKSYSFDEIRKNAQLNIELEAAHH

With `Cc1c(F)cc(-c2nc3cc(C(=O)NCCCc4ncc[nH]4)ccc3nc2-c2ccc(F)cc2)cc1F` [Compound I-306, 3-(3,5-difluoro-4-methylphenyl)-2-(4-fluorophenyl)-N-[3-(1H-imidazol-2-yl)propyl]quinoxaline-6-carboxamide], the inhibition at 1.667 µM in experiment [1] turned out to be 3%. Besides, in experiment [2], the IC50 was 500 to 1000 nM and the inhibition at 1 µM worked out at 60%.

As for `CCc1nc2ccc(C(=O)NCCCc3ncc[nH]3)cc2nc1-c1ccc(F)cc1` [Compound I-307, 2-ethyl-3-(4-fluorophenyl)-N-[3-(1H-imidazol-2-yl)propyl]quinoxaline-6-carboxamide], in experiment [1], the inhibition at 1.667 µM is 4%. In experiment [2], the IC50 lay in the range of 100 to 500 nM and the inhibition at 1 µM turned out to be 73%.

As to `NS(=O)(=O)c1cccc(-c2nc3cc(C(=O)NCCCc4ncc[nH]4)ccc3nc2-c2ccc(F)cc2)c1` [Compound I-308, 2-(4-fluorophenyl)-N-[3-(1H-imidazol-2-yl)propyl]-3-(3-sulfamoylphenyl)quinoxaline-6-carboxamide], the inhibition at 1.667 µM in experiment [1] was 4%. Besides, in experiment [2], the IC50 lay within 100 to 500 nM and the inhibition at 1 µM turned out to be 89%.

With `Cc1cc(-c2nc3cc(C(=O)NCCCc4ncc[nH]4)ccc3nc2-c2ccc(F)cc2)cnc1Cl` [Compound I-309, 3-(6-chloro-5-methylpyridin-3-yl)-2-(4-fluorophenyl)-N-[3-(1H-imidazol-2-yl)propyl]quinoxaline-6-carboxamide], in experiment [1], the inhibition at 1.667 µM was found to be 3%. For the same compound, in experiment [2], the IC50 was 100 to 500 nM and the inhibition at 1 µM came out at 86%.

`CC(C)Oc1nc2ccc(C(=O)NCCCc3nnc[nH]3)cc2nc1-c1ccc(F)cc1` [Compound I-310, 3-(4-fluorophenyl)-2-isopropoxy-N-[3-(4H-1,2,4-triazol-3-yl)propyl]quinoxaline-6-carboxamide]: the inhibition at 1.667 µM in experiment [1] came out at 4%. In experiment [2], the IC50 fell in the range of 500 to 1000 nM and the inhibition at 1 µM came out at 62%.

Take `Cc1ccc(-c2nc3cc(C(=O)NCCCc4ncc[nH]4)ccc3nc2-c2ccc(F)cc2)cc1F` [Compound I-311, 3-(3-fluoro-4-methylphenyl)-2-(4-fluorophenyl)-N-[3-(1H-imidazol-2-yl)propyl]quinoxaline-6-carboxamide]: the inhibition at 1.667 µM in experiment [1] was 2%. Besides, in experiment [2], the IC50 lay within 100 to 500 nM and the inhibition at 1 µM amounted to 76%.

On to `O=C(NCCCc1ncc[nH]1)c1ccc2nc(-c3ccc(F)cc3)c(-c3cccc(Cl)c3F)nc2c1` [Compound I-312, 3-(3-chloro-2-fluorophenyl)-2-(4-fluorophenyl)-N-[3-(1H-imidazol-2-yl)propyl]quinoxaline-6-carboxamide], for which the inhibition at 1.667 µM in experiment [1] was found to be 2%. For the same compound, in experiment [2], the IC50 was less than 100 nM and the inhibition at 1 µM amounted to 94%.

As to `O=C(NCCCc1ncc[nH]1)c1ccc2nc(-c3ccc(F)cc3)c(-c3ccccc3F)nc2c1` [Compound I-313, 3-(2-fluorophenyl)-2-(4-fluorophenyl)-N-[3-(1H-imidazol-2-yl)propyl]quinoxaline-6-carboxamide], in experiment [1], the inhibition at 1.667 µM came to 2%. In experiment [2], the half-inhibitory concentration (IC50) was in the range of 100 to 500 nM and the inhibition at 1 µM amounted to 86%.

`O=C(NCCCc1ncc[nH]1)c1ccc2nc(OCC3CCCCC3)c(-c3ccc(F)cc3)nc2c1` [Compound I-314, 2-(cyclohexylmethoxy)-3-(4-fluorophenyl)-N-[3-(1H-imidazol-2-yl)propyl]quinoxaline-6-carboxamide]: in experiment [1], the inhibition at 1.667 µM worked out at 3%. For the same compound, in experiment [2], the IC50 is less than 100 nM and the inhibition at 1 µM worked out at 91%.

For `O=C(NCCCc1ncc[nH]1)c1ccc2nc(-c3ccc(Cl)cc3)c(-c3ccc(Cl)cc3)nc2c1` [Compound I-315, 2,3-bis(4-chlorophenyl)-N-[3-(1H-imidazol-2-yl)propyl]quinoxaline-6-carboxamide], the inhibition at 1.667 µM in experiment [1] came to 1%. Moreover, in experiment [2], the IC50 lay in the range of 100 to 500 nM and the inhibition at 1 µM is 88%.

Consider `O=C(NCCCc1ncc[nH]1)c1ccc2nc(OCC3CC(F)(F)C3)c(-c3ccc(F)cc3)nc2c1` [Compound I-316, 2-[(3,3-difluorocyclobutyl)methoxy]-3-(4-fluorophenyl)-N-[3-(1H-imidazol-2-yl)propyl]quinoxaline-6-carboxamide], for which the inhibition at 1.667 µM in experiment [1] was 2%. In experiment [2], the IC50 is less than 100 nM and the inhibition at 1 µM stood at 98%.

For `COc1cc(-c2nc3cc(C(=O)NCc4ccc5nccn5c4)ccc3nc2OC(C)C)c(F)cn1` [Compound I-317, 3-(5-fluoro-2-methoxypyridin-4-yl)-N-(imidazo[1,2-a]pyridin-6-ylmethyl)-2-isopropoxyquinoxaline-6-carboxamide], the inhibition at 1.667 µM in experiment [1] came out at 1%. Also, in experiment [2], the IC50 lay within 100 to 500 nM and the inhibition at 1 µM is 66%.

In the case of `O=C(NCCCc1ncc[nH]1)c1ccc2nc(OC3COC3)c(-c3ccc(Cl)cc3)nc2c1` [Compound I-318, 3-(4-chlorophenyl)-N-[3-(1H-imidazol-2-yl)propyl]-2-(oxetan-3-yloxy)quinoxaline-6-carboxamide], the inhibition at 1.667 µM in experiment [1] turned out to be 2%. In experiment [2], the IC50 is less than 100 nM and the inhibition at 1 µM is 97%.

Take `O=C(NCCCc1ncc[nH]1)c1ccc2nc(-c3ccc(F)cc3)c(-c3cc(F)ccc3F)nc2c1` [Compound I-319, 3-(2,5-difluorophenyl)-2-(4-fluorophenyl)-N-[3-(1H-imidazol-2-yl)propyl]quinoxaline-6-carboxamide]: the inhibition at 1.667 µM in experiment [1] was found to be 3%. For the same compound, in experiment [2], the IC50 was less than 100 nM and the inhibition at 1 µM was determined as 94%.

As to `O=C(NCCCc1ncc[nH]1)c1ccc2nc(-c3ccc(F)cc3)c(-c3ccc4c(c3)OCCO4)nc2c1` [Compound I-320, 3-(2,3-dihydro-1,4-benzodioxin-6-yl)-2-(4-fluorophenyl)-N-[3-(1H-imidazol-2-yl)propyl]quinoxaline-6-carboxamide], the inhibition at 1.667 µM in experiment [1] is 3%. Moreover, in experiment [2], the IC50 fell in the range of 500 to 1000 nM and the inhibition at 1 µM turned out to be 63%.

On to `Cn1cc(CCOc2nc3ccc(C(=O)NCCCc4ncc[nH]4)cc3nc2-c2ccc(F)cc2)cn1` [Compound I-321, 3-(4-fluorophenyl)-N-[3-(1H-imidazol-2-yl)propyl]-2-[2-(1-methyl-1H-pyrazol-4-yl)ethoxy]quinoxaline-6-carboxamide], for which the inhibition at 1.667 µM in experiment [1] was 2%. In experiment [2], the IC50 was less than 100 nM and the inhibition at 1 µM is more than 99%.

Turning to `O=C(NCCCc1ncc[nH]1)c1ccc2nc(OCCO)c(-c3ccc(F)cc3)nc2c1` [Compound I-322, 3-(4-fluorophenyl)-2-(2-hydroxyethoxy)-N-[3-(1H-imidazol-2-yl)propyl]quinoxaline-6-carboxamide], in experiment [1], the inhibition at 1.667 µM was determined as 2%. In addition, in experiment [2], the IC50 was less than 100 nM and the inhibition at 1 µM was found to be 96%.

Regarding `O=C(NCCCc1ncc[nH]1)c1ccc2nc(OCC3CCCCO3)c(-c3ccc(F)cc3)nc2c1` (stereo not drawn) [Compound I-323, 3-(4-fluorophenyl)-N-[3-(1H-imidazol-2-yl)propyl]-2-(tetrahydro-2H-pyran-2-ylmethoxy)quinoxaline-6-carboxamide], in experiment [1], the inhibition at 1.667 µM amounted to 3%. In experiment [2], the IC50 was less than 100 nM and the inhibition at 1 µM worked out at 99%.

In the case of `O=C(NCCCc1ncc[nH]1)c1ccc2nc(-n3ccnc3)c(-c3ccc(F)cc3)nc2c1` [Compound I-324, 3-(4-fluorophenyl)-2-(1H-imidazol-1-yl)-N-[3-(1H-imidazol-2-yl)propyl]quinoxaline-6-carboxamide], in experiment [1], the inhibition at 1.667 µM amounted to 3%. Besides, in experiment [2], the IC50 lay in the range of 500 to 1000 nM and the inhibition at 1 µM is 57%.

`O=C(NCCCc1ncc[nH]1)c1ccc2nc(-c3ccc(F)cc3)c(-c3cncs3)nc2c1` [Compound I-325, 2-(4-fluorophenyl)-N-[3-(1H-imidazol-2-yl)propyl]-3-(1,3-thiazol-5-yl)quinoxaline-6-carboxamide]: the inhibition at 1.667 µM in experiment [1] is 4%. Moreover, in experiment [2], the IC50 was less than 100 nM and the inhibition at 1 µM is more than 99%.

As to `O=C(NCCCc1ncc[nH]1)c1ccc2nc(OCc3ccsc3)c(-c3ccc(F)cc3)nc2c1` [Compound I-326, 3-(4-fluorophenyl)-N-[3-(1H-imidazol-2-yl)propyl]-2-(3-thienylmethoxy)quinoxaline-6-carboxamide], the inhibition at 1.667 µM in experiment [1] stood at 3%. Besides, in experiment [2], the IC50 is less than 100 nM and the inhibition at 1 µM came to 92%.

For `CN1CCC(COc2nc3ccc(C(=O)NCCCc4ncc[nH]4)cc3nc2-c2ccc(F)cc2)CC1` [Compound I-327, 3-(4-fluorophenyl)-N-[3-(1H-imidazol-2-yl)propyl]-2-[(1-methylpiperidin-4-yl)methoxy]quinoxaline-6-carboxamide], the inhibition at 1.667 µM in experiment [1] stood at 2%. In experiment [2], the IC50 is less than 100 nM and the inhibition at 1 µM is more than 99%.

Turning to `O=C(NCCCc1ncc[nH]1)c1ccc2nc(-c3ccc(F)cc3)c(-c3cccc(C(F)(F)F)c3)nc2c1` [Compound I-328, 2-(4-fluorophenyl)-N-[3-(1H-imidazol-2-yl)propyl]-3-[3-(trifluoromethyl)phenyl]quinoxaline-6-carboxamide], the inhibition at 1.667 µM in experiment [1] stood at 3%. Besides, in experiment [2], the IC50 lay in the range of 100 to 500 nM and the inhibition at 1 µM is 84%.

Regarding `O=C(NCCCc1ncc[nH]1)c1ccc2nc(OCC3CCC3)c(-c3ccc(F)cc3)nc2c1` [Compound I-329, 2-(cyclobutylmethoxy)-3-(4-fluorophenyl)-N-[3-(1H-imidazol-2-yl)propyl]quinoxaline-6-carboxamide], the inhibition at 1.667 µM in experiment [1] came to 3%. In experiment [2], the IC50 was less than 100 nM and the inhibition at 1 µM is 95%.
